# Measurements reported in US20110236504A1, “VERSATILE DISINFECTANT” (priority 2008, published 2011).
# What was measured:
# [1] = test system: E. coli O-157; assay: Metal ion or food preservative added to growth medium, viable count; assay type: cell-based; conditions: metal ion in growth medium
# Method: (§1) To a standard medium for counting viable bacteria described below, each metal ion with varied concentration was added. […] Then, the number of viable bacteria was counted with time in a common procedure.
# (§2) Sample bacteria: S. aureus 209P as a representative of Gram-positive bacteria • E. coli 0-157 as a representative of Gram-negative bacteria
# (§3) Standard medium for counting viable bacteria: yeast extract 2.5 g, peptone 5 g, glucose 1 g, agar 15 g, pH 7.2
# [2] = test system: E. coli O-157; assay: as above; assay type: cell-based; conditions: food preservative in growth medium
# [3] = test system: S. aureus 209P; assay: as above; assay type: cell-based
# Method: as §1, §2, §3
# [4] = test system: sample bacteria (S. aureus 209P, E. coli O-157); assay: Death rate over time, food preservative in purified water pH 3.0
# [5] = food preservative in growth medium
Structure (SMILES),"(a) Antiproliferative activity, concentration [1]","(b) Bacteriostatic activity, concentration [1]","(c) Bactericidal activity, concentration [1]","(a) Antiproliferative activity, concentration [2]","(b) Bacteriostatic activity, concentration [2]","(a) Antiproliferative activity, concentration [3, 5]","(b) Bacteriostatic activity, concentration [3, 5]","Death rate ([4]; 50 ppm, 5 min)","Death rate ([4]; 50 ppm, 10 min)","Death rate ([4]; 50 ppm, 15 min)","Death rate ([4]; 50 ppm, 30 min)","Death rate ([4]; 50 ppm, 60 min)","Death rate ([4]; 50 ppm, 90 min)","Death rate ([4]; 50 ppm, 120 min)","Death rate ([4]; 200 ppm, 5 min)","Death rate ([4]; 200 ppm, 10 min)","Death rate ([4]; 200 ppm, 15 min)","Death rate ([4]; 200 ppm, 30 min)","Death rate ([4]; 200 ppm, 60 min)","Death rate ([4]; 200 ppm, 90 min)",also measured
"O=[N+]([O-])[O-].[Ag+] [Ag^+, AgNO3]",0.05~2 ppm,2~4 ppm,4 ppm>,–,–,–,–,–,–,–,–,–,–,–,–,–,–,–,–,–,–
O=C(O)c1ccccc1 [Benzoic acid],–,–,–,25~200 ppm,180 ppm>,25~200 ppm,180 ppm>,0,0,0,1,5,10,12,0,0,0,2,7,10,"Death rate ([4]; 200 ppm, 120 min): 12; Death rate ([4]; 500 ppm, 5 min): 0; Death rate ([4]; 500 ppm, 10 min): 0; Death rate ([4]; 500 ppm, 15 min): 1; Death rate ([4]; 500 ppm, 30 min): 3; Death rate ([4]; 500 ppm, 60 min): 8; Death rate ([4]; 500 ppm, 90 min): 12; Death rate ([4]; 500 ppm, 120 min): 15"
"O.O.O.O.O.O.[Cl-].[Cl-].[Co+2] [Co^2+, CoCl2•6H2O]",100~250 ppm,220~500 ppm,500 ppm>,–,–,–,–,–,–,–,–,–,–,–,–,–,–,–,–,–,"(c) Bactericidal activity, concentration ([3]; metal ion in growth medium): 500 ppm>; Acceleration of growth, concentration ([3]; metal ion in growth medium): 20 ppm<; Acceleration of growth, concentration [1]: 25 ppm<"
CCOC(=O)c1ccc(O)cc1 [Ethyl para-hydroxybenzoate],–,–,–,40~300 ppm,230 ppm>,50~300 ppm,250 ppm>,0,0,0,2,5,8,12,0,0,0,2,5,10,"Death rate ([4]; 200 ppm, 120 min): 12; Death rate ([4]; 500 ppm, 5 min): 0; Death rate ([4]; 500 ppm, 10 min): 0; Death rate ([4]; 500 ppm, 15 min): 0; Death rate ([4]; 500 ppm, 30 min): 2; Death rate ([4]; 500 ppm, 60 min): 7; Death rate ([4]; 500 ppm, 90 min): 12; Death rate ([4]; 500 ppm, 120 min): 15"
"O.O.O.O.O.O.O.O=S(=O)([O-])[O-].[Ni+2] [Ni^2+, NiSO4•7H2O]",20~170 ppm,150~350 ppm,350 ppm>,–,–,–,–,–,–,–,–,–,–,–,–,–,–,–,–,–,"(a) Antiproliferative activity, concentration ([3]; metal ion in growth medium): 25~150 ppm; (b) Bacteriostatic activity, concentration ([3]; metal ion in growth medium): 120~300 ppm; (c) Bactericidal activity, concentration ([3]; metal ion in growth medium): 300 ppm>; Acceleration of growth, concentration ([3]; metal ion in growth medium): 5 ppm<; Acceleration of growth, concentration [1]: 10 ppm<"
